Values of other authors as cited in patent publication US8575191B2, “Methods for treatment of non-small cell lung cancer” (priority 2010, dated 2013).

Tested on: NSCLC

C#Cc1cccc(Nc2ncnc3cc(OCCOC)c(OCCOC)cc23)c1 [erlotinib]
survival HR compared to placebo (adenocarcinoma): 0.8 | response rate (unselected NSCLC patients previously treated with chemotherapy): 9%
